Experimental data: US10065927B2, “α-ketoacylic isoniazid compounds, process for producing said compounds, use of the compounds in the treatment of tuberculosis” (priority 2015, dated 2018)
In brackets after ≈: the same amount, converted by molar mass. Entries after “also recorded” stand apart in the source; their conditions may differ. Like-named read-outs stand apart in the source and are kept apart here.

Key:
[1] = test system: Mycobacterium tuberculosis strain H37Rv ATCC 27294; assay: Antimycobacterial evaluation, MIC by microplate Alamar Blue Assay, retested by BACTEC MGIT 960-TB; type: cell-based; conditions: for MIC: M. tuberculosis strain H37Rv ATCC 27294, sensitive to first-choice drugs; for antimycobacterial activity (in words): against M. tuberculosis
[2] = test system: J77-4 lineage murine macrophages; type: cell-based; conditions: mouse
Protocol: The cytotoxicity evaluation of compound 2 was performed with J77-4 lineage murine macrophages.

[3] = Mycobacterium tuberculosis, read-out: MIC
[4] = strains sensitive to first-choice drugs

NC(=O)c1cnccn1 [Pyrazinamide, reference compound]
MIC [1, 3]: 813 µM (≈ 100 µg/mL)

CC(=O)NNC(=O)c1ccncc1 [2-acetylisomide, 2-acetylisoniazide, reference compound]
MIC [1]: Inactive | antimycobacterial activity (in words) [1]: did not show antimycobacterial activity

NNC(=O)c1ccncc1 [Isoniazid]
MIC [1, 3]: 0.73 µM (≈ 0.1 µg/mL)

O=C(NNC(=O)c1ccncc1)C(=O)c1ccccc1NC(=O)c1ccccc1 [Compound 4, reference compound]
MIC ([1]; read-out: MIC): 8.04 µM (≈ 3.12 µg/mL) | antimycobacterial activity (in words) [1]: did not show good activity

CC(=O)Nc1ccccc1C(=O)C(=O)NNC(=O)c1ccncc1 [Compound 2, N-(2-(2-(2-Isonicotinoylhydrazine)-2-Oxoacetyl)Phenyl) Acetamide]
MIC [1, 3]: 0.37 µM (≈ 0.121 µg/mL) | antimycobacterial activity (in words) [1]: antimycobacterial activity superior to all the first-choice drugs; also recorded: higher potency than all the first-choice drugs | activity relative to pyrazinamide [1, 4]: almost two thousand and two hundred times more active than pyrazinamide | potency relative to ethambutol [1, 4]: more than forty times more potent than ethambutol | potency relative to isoniazid [1, 4]: twice as potent as isoniazid | potency relative to rifampicin [1, 4]: more than three times more potent than rifampicin | Cell Viability (%) ([2]; 1 nM): 96.8% | Cell Viability (%) ([2]; 10 nM): 97.8% | Cell Viability (%) ([2]; 100 nM): 97.9% | Cell Viability (%) [2]; 1: 97.4% | Cell Viability (%) [2]; 10: 97.3% | Cell Viability (%) [2]; 100: 98.2%

CC[C@@H](CO)NCCN[C@@H](CC)CO [Etambutol, ethambutol, reference compound]
MIC [1, 3]: 15.9 µM (≈ 3.25 µg/mL)
